Data reported in PubChem BioAssay (NCI).
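Tested at 5 concentrations; 48 h exposure; 96-well plates; endpoints linearly interpolated, else capped at highest concentration. TGI is the concentration that stops growth completely.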

How the values were obtained:
Assay in all cases: NCI tumour cell line growth inhibition, 48 h
[1] = test system: 786-0 renal
[2] = test system: A549 NSCLC
[3] = test system: ACHN renal
[4] = test system: BT-549 breast
[5] = test system: CAKI-1 renal
[6] = test system: CCRF-CEM leukemia
[7] = test system: COLO 205 colon
[8] = test system: DU-145 prostate
[9] = test system: EKVX NSCLC
[10] = test system: HCC-2998 colon
[11] = test system: HCT-116 colon
[12] = test system: HCT-15 colon
[13] = test system: HOP-62 NSCLC
[14] = test system: HT29 colon
[15] = test system: K-562 leukemia
[16] = test system: KM12 colon
[17] = test system: LOX IMVI melanoma
[18] = test system: M14 melanoma
[19] = test system: MALME-3M melanoma
[20] = test system: MCF7 breast
[21] = test system: MDA-MB-231 breast
[22] = test system: MDA-MB-435
[23] = test system: MDA-N
[24] = test system: MOLT-4 leukemia
[25] = test system: NCI-H226 lung
[26] = test system: NCI-H23 lung
[27] = test system: NCI-H460 lung
[28] = test system: NCI-H522 lung
[29] = test system: NCI/ADR-RES ovarian
[30] = test system: OVCAR-3 ovarian
[31] = test system: OVCAR-4 ovarian
[32] = test system: OVCAR-5 ovarian
[33] = test system: PC-3 prostate
[34] = test system: RXF 393 renal
[35] = test system: SF-268 CNS
[36] = test system: SF-295 CNS
[37] = test system: SK-MEL-2 melanoma
[38] = test system: SK-MEL-28 melanoma
[39] = test system: SK-MEL-5 melanoma
[40] = test system: SK-OV-3 ovarian
[41] = test system: SN12C renal
[42] = test system: SNB-19 CNS
[43] = test system: SNB-75 CNS
[44] = test system: SR leukemia
[45] = test system: SW-620 colon
[46] = test system: T-47D breast
[47] = test system: TK-10 renal
[48] = test system: U251 CNS
[49] = test system: UACC-257 melanoma
[50] = test system: UACC-62 melanoma
[51] = test system: UO-31 renal
[52] = test system: A498 renal
[53] = test system: HL-60(TB) leukemia
[54] = test system: HOP-92 NSCLC
[55] = test system: HS 578T breast
[56] = test system: IGROV1 ovarian
[57] = test system: OVCAR-8 ovarian
[58] = test system: RPMI-8226 leukemia
[59] = test system: SF-539 CNS

COC(=O)C12CCCN1CCC2
TGI [1]: > 100 µM | TGI [2]: > 100 µM | TGI [3]: > 100 µM | TGI [4]: > 100 µM | TGI [5]: > 100 µM | TGI [6]: > 100 µM | TGI [7]: > 100 µM | TGI [8]: > 100 µM | TGI [9]: > 100 µM | TGI [10]: > 100 µM | TGI [11]: > 100 µM | TGI [12]: > 100 µM | TGI [13]: > 100 µM | TGI [14]: > 100 µM | TGI [15]: > 100 µM | TGI [16]: > 100 µM | TGI [17]: > 100 µM | TGI [18]: > 100 µM | TGI [19]: > 100 µM | TGI [20]: > 100 µM | TGI [21]: > 100 µM | TGI [22]: > 100 µM | TGI [23]: > 100 µM | TGI [24]: > 100 µM | TGI [25]: > 100 µM | TGI [26]: > 100 µM | TGI [27]: > 100 µM | TGI [28]: > 100 µM | TGI [29]: > 100 µM | TGI [30]: > 100 µM | TGI [31]: > 100 µM | TGI [32]: > 100 µM | TGI [33]: > 100 µM | TGI [34]: > 100 µM | TGI [35]: > 100 µM | TGI [36]: > 100 µM | TGI [37]: > 100 µM | TGI [38]: > 100 µM | TGI [39]: > 100 µM | TGI [40]: > 100 µM | TGI [41]: > 100 µM | TGI [42]: > 100 µM | TGI [43]: > 100 µM | TGI [44]: > 100 µM | TGI [45]: > 100 µM | TGI [46]: > 100 µM | TGI [47]: > 100 µM | TGI [48]: > 100 µM | TGI [49]: > 100 µM | TGI [50]: > 100 µM | TGI [51]: > 100 µM

C/C(=N/NC(=S)N1CCCCCC1)c1cccc(/C(C)=N\NC(=S)N2CCCCCC2)n1
TGI [1]: 2.63 µM | TGI [52]: 2.85 µM | TGI [2]: 4.86 µM | TGI [3]: 2.87 µM | TGI [7]: 3.23 µM | TGI [8]: 6.04 µM | TGI [9]: 7.98 µM | TGI [10]: 6.38 µM | TGI [11]: 3.48 µM | TGI [12]: 5.36 µM | TGI [53]: 5.26 µM | TGI [13]: 3.82 µM | TGI [54]: 3.58 µM | TGI [55]: 8.82 µM | TGI [14]: 4.65 µM | TGI [56]: 2.86 µM | TGI [15]: 6.58 µM | TGI [16]: 3.16 µM | TGI [17]: 3.41 µM | TGI [18]: 3.53 µM | TGI [19]: 2.28 µM | TGI [20]: 3.46 µM | TGI [21]: 3.41 µM | TGI [22]: 3.36 µM | TGI [23]: 4.9 µM | TGI [24]: 6.34 µM | TGI [25]: 3.31 µM | TGI [26]: 5.44 µM | TGI [27]: 6.78 µM | TGI [28]: 6.42 µM | TGI [29]: 3.86 µM | TGI [30]: 2.59 µM | TGI [31]: 2.44 µM | TGI [32]: 5.26 µM | TGI [57]: 3.11 µM | TGI [33]: 5.2 µM | TGI [58]: 5.33 µM | TGI [34]: 3.69 µM | TGI [35]: 9.46 µM | TGI [36]: 4.12 µM | TGI [59]: 3.15 µM | TGI [37]: 3.81 µM | TGI [38]: 6 µM | TGI [39]: 2.72 µM | TGI [40]: 4.1 µM | TGI [41]: 4.57 µM | TGI [42]: 9.43 µM | TGI [43]: 4.68 µM | TGI [44]: 5.84 µM | TGI [45]: 3.55 µM | TGI [46]: 5.95 µM | TGI [47]: 3.29 µM | TGI [48]: 4.77 µM | TGI [49]: 3.45 µM | TGI [50]: 5.27 µM | TGI [51]: 3.39 µM

CC1(N2CCOCC2)CC2C(=[N+]1[O-])CCC/C2=N/O (stereo unspecified)
TGI [1]: > 100 µM | TGI [2]: > 100 µM | TGI [3]: > 100 µM | TGI [4]: > 100 µM | TGI [5]: > 100 µM | TGI [6]: > 100 µM | TGI [9]: > 100 µM | TGI [10]: > 100 µM | TGI [11]: > 100 µM | TGI [12]: > 100 µM | TGI [13]: > 100 µM | TGI [55]: > 100 µM | TGI [14]: > 100 µM | TGI [56]: > 100 µM | TGI [15]: > 100 µM | TGI [16]: > 100 µM | TGI [17]: > 100 µM | TGI [18]: > 100 µM | TGI [19]: > 100 µM | TGI [20]: > 100 µM | TGI [21]: > 100 µM | TGI [22]: > 100 µM | TGI [23]: > 100 µM | TGI [24]: > 100 µM | TGI [25]: > 100 µM | TGI [26]: > 100 µM | TGI [27]: > 100 µM | TGI [28]: > 100 µM | TGI [29]: > 100 µM | TGI [30]: > 100 µM | TGI [31]: > 100 µM | TGI [32]: > 100 µM | TGI [57]: > 100 µM | TGI [33]: > 100 µM | TGI [34]: > 100 µM | TGI [35]: > 100 µM | TGI [36]: > 100 µM | TGI [59]: > 100 µM | TGI [37]: > 100 µM | TGI [38]: > 100 µM | TGI [39]: > 100 µM | TGI [40]: > 100 µM | TGI [41]: > 100 µM | TGI [42]: > 100 µM | TGI [43]: > 100 µM | TGI [44]: > 100 µM | TGI [45]: > 100 µM | TGI [46]: > 100 µM | TGI [47]: > 100 µM | TGI [48]: > 100 µM | TGI [49]: > 100 µM | TGI [50]: > 100 µM | TGI [51]: > 100 µM

COc1cc(O)c2c(=O)c3cccc(C)c3[nH]c2c1
TGI [1]: > 10 µM | TGI [52]: > 10 µM | TGI [2]: > 10 µM | TGI [3]: > 10 µM | TGI [4]: > 10 µM | TGI [5]: > 10 µM | TGI [6]: > 10 µM | TGI [7]: > 10 µM | TGI [8]: > 10 µM | TGI [9]: > 10 µM | TGI [10]: > 10 µM | TGI [11]: > 10 µM | TGI [12]: > 10 µM | TGI [53]: > 10 µM | TGI [13]: > 10 µM | TGI [55]: > 10 µM | TGI [14]: > 10 µM | TGI [56]: > 10 µM | TGI [15]: > 10 µM | TGI [16]: > 10 µM | TGI [17]: > 10 µM | TGI [18]: > 10 µM | TGI [19]: > 10 µM | TGI [20]: > 10 µM | TGI [21]: > 10 µM | TGI [22]: > 10 µM | TGI [23]: > 10 µM | TGI [24]: > 10 µM | TGI [25]: > 10 µM | TGI [26]: > 10 µM | TGI [27]: > 10 µM | TGI [28]: > 10 µM | TGI [29]: > 10 µM | TGI [30]: > 10 µM | TGI [31]: > 10 µM | TGI [32]: > 10 µM | TGI [57]: > 10 µM | TGI [33]: > 10 µM | TGI [58]: > 10 µM | TGI [34]: > 10 µM | TGI [35]: > 10 µM | TGI [36]: > 10 µM | TGI [59]: > 10 µM | TGI [37]: > 10 µM | TGI [38]: > 10 µM | TGI [39]: > 10 µM | TGI [40]: > 10 µM | TGI [41]: > 10 µM | TGI [42]: > 10 µM | TGI [43]: > 10 µM | TGI [45]: > 10 µM | TGI [46]: > 10 µM | TGI [47]: > 10 µM | TGI [48]: > 10 µM | TGI [49]: > 10 µM | TGI [50]: > 10 µM
